Data on 2 compounds can be found in article PMC3268193 (British Journal of Pharmacology, 2012).

Where a chain is given by its changes, count along the chain named.

One experiment addresses T1, P2X1 Cys2(3-4) chimera (Homo sapiens, UniProt P51575, A137L/A141G/I144L/K136E/K138D/K140L/K148R/P134A/Q142N/R139M/T133V).
T1 sequence (P51575 1-399 T133V/P134A/K136E/A137L/K138D/R139M/K140L/A141G/Q142N/I144L/K148R): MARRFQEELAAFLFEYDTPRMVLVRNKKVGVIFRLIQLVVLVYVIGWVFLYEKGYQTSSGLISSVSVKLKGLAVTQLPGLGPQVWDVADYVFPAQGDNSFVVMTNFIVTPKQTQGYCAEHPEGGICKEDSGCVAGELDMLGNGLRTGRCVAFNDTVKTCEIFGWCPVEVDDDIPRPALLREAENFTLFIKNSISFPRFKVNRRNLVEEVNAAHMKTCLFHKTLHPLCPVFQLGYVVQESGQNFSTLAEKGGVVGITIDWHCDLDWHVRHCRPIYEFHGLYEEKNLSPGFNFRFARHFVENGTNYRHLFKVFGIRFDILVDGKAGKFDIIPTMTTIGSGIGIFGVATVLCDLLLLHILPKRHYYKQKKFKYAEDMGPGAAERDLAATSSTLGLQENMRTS
Put plainly: Two-electrode voltage clamp, chimera P2X1 Cys2. Format: cell-based. A general note: Two-electrode voltage clamp is typically applied to oocytes expressing channels or transporters.

The target in experiment [1] is T2, P2X1 receptor mutant K138D (Homo sapiens, UniProt P51575, K138D).
T2 sequence (P51575 1-399 K138D): T1 sequence (P51575 1-399 T133V/P134A/K136E/A137L/K138D/R139M/K140L/A141G/Q142N/I144L/K148R) with V133T, A134P, E136K, L137A, M139R, L140K, G141A, N142Q, L144I, R148K
In words: Two-electrode voltage clamp, P2X1 mutant K138D. Format: cell-based.

For experiment [2], the target named is T3, P2X1 receptor mutant KAKRK → ELDML(5) (Homo sapiens, UniProt P51575, A137L/K136E/K138D/K140L/R139M).
T3 sequence (P51575 1-399 K136E/A137L/K138D/R139M/K140L): T1 sequence (P51575 1-399 T133V/P134A/K136E/A137L/K138D/R139M/K140L/A141G/Q142N/I144L/K148R) with V133T, A134P, G141A, N142Q, L144I, R148K
Put plainly: Two-electrode voltage clamp, P2X1 mutant X1-ELDML. Format: cell-based.

Experiment [3] deals with T4, P2X2 receptor mutant X2-KLKML(2) (E134KD136K) (Homo sapiens, UniProt Q9UBL9, D148K/E146K).
T4 sequence (Q9UBL9 1-471 E146K/D148K): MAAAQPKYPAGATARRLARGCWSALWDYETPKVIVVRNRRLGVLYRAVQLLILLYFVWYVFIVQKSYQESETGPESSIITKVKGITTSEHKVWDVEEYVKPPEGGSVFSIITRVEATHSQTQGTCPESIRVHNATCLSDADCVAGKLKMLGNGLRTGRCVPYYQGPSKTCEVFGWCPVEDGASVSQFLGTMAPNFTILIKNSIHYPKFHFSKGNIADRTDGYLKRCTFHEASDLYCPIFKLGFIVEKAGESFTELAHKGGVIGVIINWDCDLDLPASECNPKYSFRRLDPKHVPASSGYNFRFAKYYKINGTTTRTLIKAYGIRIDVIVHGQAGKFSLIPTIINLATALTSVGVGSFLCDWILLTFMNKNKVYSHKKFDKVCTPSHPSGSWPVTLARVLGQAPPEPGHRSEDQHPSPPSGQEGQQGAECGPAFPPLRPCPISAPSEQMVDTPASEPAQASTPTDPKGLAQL
Put plainly: Two-electrode voltage clamp, P2X2 mutant X2-KLKML. Conditions: double mutation E134KD136K. Format: cell-based.

For a further experiment, the system named is P2X7 receptor. Conditions: ref Fonfria et al., 2008; cited from earlier work.

`O=C(Nc1cc(C(=O)Nc2ccc(S(=O)(=O)O)cc2S(=O)(=O)O)cc(C(=O)Nc2ccc(S(=O)(=O)O)cc2S(=O)(=O)O)c1)Nc1cc(C(=O)Nc2ccc(S(=O)(=O)O)cc2S(=O)(=O)O)cc(C(=O)Nc2ccc(S(=O)(=O)O)cc2S(=O)(=O)O)c1` [NF449, 4,4′,4′′,4′′′-(carbonylbis(imino-5,1,3-benzenetriyl-bis(carbonylimino)))tetrakis-benzene-1,3-disulphonic acid]: at P2X1 Cys2(3-4) chimera, the “Decrease in NF449 sensitivity compared with P2X1 WT” value was ~1700 fold. Also, the “Reduction in NF449 sensitivity compared with P2X1 WT” value in experiment [1] is given as ~10 fold. Also, the “Reduction in NF449 sensitivity compared with WT P2X1” value in experiment [2] is on record as ~700 fold.

For `Cc1ccc(C(=O)Nc2ccc(S(=O)(=O)O)c3cc(S(=O)(=O)O)cc(S(=O)(=O)O)c23)cc1NC(=O)c1cccc(NC(=O)Nc2cccc(C(=O)Nc3cc(C(=O)Nc4ccc(S(=O)(=O)O)c5cc(S(=O)(=O)O)cc(S(=O)(=O)O)c45)ccc3C)c2)c1` [suramin], the “Increase in suramin sensitivity compared with WT P2X2” value in experiment [3] is listed as 10 fold. In the experiment on P2X7 receptor, the “Effectiveness at guinea pig compared with rat and human P2X7 isoforms” value is reported as ~10 fold.
